# Reference: US9204653B2, “5-fluoro pyrimidine derivatives” (DOW AGROSCIENCES LLC, priority 2008, dated 2015)
# Like-named read-outs stand apart in the source and are kept apart here.
# Test system: Mycosphaerella graminicola; Anamorph: Septoria tritici; Bayer Code SEPTTR
# Assay: Leaf blotch of wheat, foliar fungicide treatment, one day protectant (1DP) or three day curative (3DC)
# Format: in vivo, Septoria tritici on wheat plants (variety Yuma)
# Conditions: Zymoseptoria tritici, rating of percent disease control
# [1] = 24 h, one day protectant, read-out: SETTTR 1DP 25 ppm
# [2] = 24 h, one day protectant, read-out: SEPTTR 1DP 100 ppm
# [3] = 72 h, three day curative, read-out: SEPTTR 3DC 25 ppm
# [4] = 72 h, three day curative, read-out: SEPTTR 3DC 100 ppm
SMILES,pest or weed control at 25 ppm [1] [%],pest or weed control at 100 ppm [2] [%],pest or weed control at 25 ppm [3] [%],pest or weed control at 100 ppm [4] [%]
CCOCNc1nc(OCc2cccc(OC)c2)ncc1F [Compound 601],76 to 100,76 to 100,76 to 100,76 to 100
Cc1cccc(COc2ncc(F)c(N)n2)c1C [Compound 602],0 to 25,51 to 75,0 to 25,0 to 25
COc1cccc(COc2ncc(F)c(N/N=C/c3nc(C)cs3)n2)c1 [Compound 603],26 to 50,76 to 100,0 to 25,0 to 25
Nc1nc(OCc2ccccc2Br)ncc1F [Compound 604],76 to 100,76 to 100,76 to 100,76 to 100
CC[Si](CC)(CC)Nc1nc(Oc2ccc(OC)cc2)ncc1F [Compound 605],51 to 75,76 to 100,0 to 25,76 to 100
CC(Oc1ncc(F)c(N)n1)c1ccc(Cl)c(Cl)c1Cl (stereo not drawn) [Compound 607],0 to 25,0 to 25,0 to 25,26 to 50
COc1cccc(COc2ncc(F)c(N(C)N)n2)c1 [Compound 608],51 to 75,76 to 100,51 to 75,76 to 100
COc1cccc(COc2ncc(F)c(N)n2)c1OC [Compound 609],76 to 100,76 to 100,76 to 100,76 to 100
Cc1ccc(OC(=O)Oc2ncc(F)c(/N=C/N(C)C)n2)cc1 [Compound 610],76 to 100,76 to 100,26 to 50,51 to 75
Nc1nc(OS(=O)(=O)c2ccc(Cl)cc2)ncc1F [Compound 611],76 to 100,76 to 100,76 to 100,76 to 100
N#Cc1cccc(COc2ncc(F)c(NSc3ccccc3[N+](=O)[O-])n2)c1 [Compound 612],76 to 100,76 to 100,76 to 100,76 to 100
Cc1ccc(COc2ncc(F)c(NC(=O)OCc3ccccc3)n2)cc1 [Compound 613],76 to 100,76 to 100,76 to 100,76 to 100
CC(C)OCNc1nc(OCc2ccc(F)cc2)ncc1F [Compound 614],76 to 100,76 to 100,76 to 100,76 to 100
CC(=O)Nc1nc(O/N=C(\C)c2ccccc2)ncc1F [Compound 616],76 to 100,76 to 100,76 to 100,76 to 100
Cc1ccc(C(C)C)cc1C(C)Oc1ncc(F)c(N)n1 (stereo not drawn) [Compound 617],76 to 100,76 to 100,76 to 100,76 to 100
COc1cc(COc2ncc(F)c(N)n2)cc(OC)c1 [Compound 623],76 to 100,76 to 100,51 to 75,76 to 100
CC(=O)Nc1nc(OCCc2ccc(Cl)cc2)ncc1F [Compound 624],51 to 75,76 to 100,51 to 75,76 to 100
CSCCOc1ncc(F)c(N)n1 [Compound 625],0 to 25,26 to 50,0 to 25,26 to 50
Nc1nc(OCc2nccs2)ncc1F [Compound 628],26 to 50,76 to 100,51 to 75,76 to 100
Nc1nc(OCc2ccc(SC(F)(F)F)cc2)ncc1F [Compound 632],76 to 100,76 to 100,76 to 100,76 to 100
CCOC(=O)Nc1nc(OCc2cccc(F)c2)ncc1F [Compound 633],76 to 100,76 to 100,76 to 100,76 to 100
CN(C)/C=N/c1nc(OC(=O)OCC(Cl)(Cl)Cl)ncc1F [Compound 634],76 to 100,76 to 100,76 to 100,76 to 100
COc1ccc(C(=O)Oc2ncc(F)c(/N=C/N(C)C)n2)cc1 [Compound 636],76 to 100,76 to 100,76 to 100,76 to 100

SMILES,pest or weed control at 25 ppm [1] [%],pest or weed control at 100 ppm [2] [%],pest or weed control at 25 ppm [3] [%],pest or weed control at 100 ppm [4] [%]
Nc1nc(OCc2ccc(CO)cc2)ncc1F [Compound 637],76 to 100,76 to 100,76 to 100,76 to 100
COc1cccc(COc2ncc(F)c(NCOCc3ccccc3)n2)c1 [Compound 638],51 to 75,76 to 100,0 to 25,51 to 75
COc1cccc(COc2ncc(F)c(NC(=S)Nc3ccccc3F)n2)c1 [Compound 639],76 to 100,76 to 100,51 to 75,76 to 100
N#C/C(=N\Oc1ncc(F)c(N)n1)c1ccccc1 [Compound 640],76 to 100,76 to 100,76 to 100,76 to 100
Cc1ccccc1C(C)Oc1ncc(F)c(/N=C/N(C)C)n1 (stereo not drawn) [Compound 643],76 to 100,76 to 100,76 to 100,76 to 100
Nc1nc(OCc2ccc(Cl)nc2)ncc1F [Compound 644],76 to 100,76 to 100,76 to 100,76 to 100
COc1ccc(CCOc2ncc(F)c(N)n2)cc1 [Compound 645],26 to 50,76 to 100,0 to 25,51 to 75
O=CNc1nc(OS(=O)(=O)c2ccccc2)ncc1F [Compound 646],51 to 75,76 to 100,76 to 100,76 to 100
C=CCOC(=O)Oc1ncc(F)c(/N=C/N(C)C)n1 [Compound 647],76 to 100,76 to 100,76 to 100,76 to 100
Nc1nc(OCc2ccc(OCc3ccc(F)cc3)cc2)ncc1F [Compound 648],76 to 100,76 to 100,76 to 100,76 to 100
CCCCOc1cc(COc2ncc(F)c(N)n2)ccc1OC [Compound 650],76 to 100,76 to 100,76 to 100,76 to 100
COc1cccc(COc2ncc(F)c(NOC3CCCCO3)n2)c1 (stereo not drawn) [Compound 652],0 to 25,51 to 75,0 to 25,76 to 100
C=CCCOc1ncc(F)c(N)n1 [Compound 653],0 to 25,0 to 25,26 to 50,76 to 100
CCOCCOc1cccc(COc2ncc(F)c(NSc3ccccc3[N+](=O)[O-])n2)c1 [Compound 655],51 to 75,76 to 100,51 to 75,26 to 50
CC[Si](CC)(CC)Nc1nc(OCc2ccccc2)ncc1F [Compound 656],76 to 100,76 to 100,76 to 100,76 to 100
CCCCCCOc1ncc(F)c(N[Si](CC)(CC)CC)n1 [Compound 658],0 to 25,51 to 75,0 to 25,51 to 75
COc1ccc(S(=O)(=O)Oc2ncc(F)c(N)n2)cc1 [Compound 660],76 to 100,76 to 100,26 to 50,0 to 25
O=[N+]([O-])c1ccccc1SNc1nc(OCc2ccc(F)cc2F)ncc1F [Compound 662],0 to 25,76 to 100,26 to 50,26 to 50
COc1ccc(COc2ncc(F)c(/N=C/N(C)C)n2)cc1F [Compound 663],76 to 100,76 to 100,76 to 100,76 to 100
CCc1ccccc1NNc1nc(OCc2ccc(F)cc2)ncc1F [Compound 667],0 to 25,76 to 100,0 to 25,76 to 100
COCCOC(=O)Nc1nc(OCc2cccc(C#N)c2)ncc1F [Compound 668],26 to 50,76 to 100,76 to 100,76 to 100
CN(C)/C=N/c1nc(OC(=O)Oc2ccccc2)ncc1F [Compound 669],76 to 100,76 to 100,76 to 100,76 to 100
